A short description of data set [1]: Cmax in male C57BL/6 mouse at 10 mg/kg, po measured after 24 hrs by UPLC/MS/MS analysis. Type of data set: ADME, organism-based. As to conditions: in vivo.
Data set [2] is described as follows: Tmax in male C57BL/6 mouse at 10 mg/kg, po measured after 24 hrs by UPLC/MS/MS analysis. The following applies: in vivo. Type of data set: ADME, organism-based.
The nature of data set [3]: AUC (0 to 24 hrs) in male C57BL/6 mouse at 10 mg/kg, po measured after 24 hrs by UPLC/MS/MS analysis. Type of data set: ADME, organism-based. The following applies: in vivo.
Data set [4] concerns the target Galectin-3 (Mus musculus, UniProt P16110). Put plainly: Inhibition of his-tagged N-terminal recombinant mouse Gal-3 preincubated for 30 mins followed by Biotin-ASF addition and measured after 1 hr by HTRF assay. On the technique in general: In TR-FRET formats the signal depends on donor and acceptor labels being close together.
Data set [5] in a line: Permeability of the compound at pH 5.5 incubated for 4 hrs by PAMPA. Format: ADME. The following applies: for Papp at 4 h: PAMPA, pH 5.5, read-out: permeability. For orientation: PAMPA measures passive passage across an artificial lipid membrane.
Data set [6] in a line: Permeability of the compound at pH 7.4 incubated for 4 hrs by PAMPA. Type of data set: ADME. The following applies: for permeability: pampa, pH 7.4, 4 h; for Papp at 4 h: PAMPA, pH 7.4, read-out: permeability.
The target in data set [7] is Galectin-3 (Homo sapiens, UniProt P17931). Kind of data set: Inhibition of his-tagged N-terminal recombinant human Gal-3 preincubated for 30 mins followed by Biotin-ASF addition and measured after 1 hr by HTRF assay.
In another data set the target is Galectin-1 (Homo sapiens, UniProt P09382). Put plainly: Inhibition of his-tagged N-terminal human Gal-1 preincubated for 30 mins followed by Biotin-ASF addition and measured after 1 hr by HTRF assay.
The target of another data set is Galectin-9 (Homo sapiens, UniProt O00182). Put plainly: Inhibition of his-tagged N-terminal human Gal-9 preincubated for 30 mins followed by Biotin-ASF addition and measured after 1 hr by HTRF assay.
A short description of data set [8]: Permeability of the compound in human Caco-2 cells across apical to basolateral side at pH 7.4 incubated for 2 hrs by LC-MS/MS analysis. Type of data set: ADME, cell-based. The following applies: Caco-2, pH 7.4, read-out: permeability.
Data set [9] is described as follows: Permeability of the compound in human Caco-2 cells across basolateral to apical side at pH 7.4 incubated for 2 hrs by LC-MS/MS analysis. The following applies: Caco-2, pH 7.4, read-out: permeability. Type of data set: ADME, cell-based. For orientation: Passage across Caco-2 layers is used to estimate intestinal permeability.
Data set [10] is described as follows: Permeability of the compound across apical to basolateral side in human Caco-2 cells assessed as drug recovery at pH 7.4 incubated for 2 hrs by LC-MS/MS analysis. As to conditions: Caco-2, pH 7.4, read-out: Drug recovery. Format: ADME, cell-based.
Data set [11] is described as follows: Permeability of the compound across basolateral to apical side in human Caco-2 cells assessed as drug recovery at pH 7.4 incubated for 2 hrs by LC-MS/MS analysis. As to conditions: Caco-2, pH 7.4, read-out: Drug recovery. Type of data set: ADME, cell-based.

Sequence of Galectin-3 (Mus musculus, UniProt P16110) (P16110 whole entry): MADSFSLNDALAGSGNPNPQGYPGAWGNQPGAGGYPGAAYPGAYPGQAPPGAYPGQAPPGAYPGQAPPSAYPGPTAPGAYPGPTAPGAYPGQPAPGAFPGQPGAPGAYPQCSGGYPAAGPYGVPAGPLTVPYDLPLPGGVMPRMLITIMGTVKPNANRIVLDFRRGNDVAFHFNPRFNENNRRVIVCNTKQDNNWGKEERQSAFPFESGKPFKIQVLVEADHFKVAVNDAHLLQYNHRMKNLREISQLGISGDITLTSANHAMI
Sequence of Galectin-3 (Homo sapiens, UniProt P17931) (P17931 whole entry): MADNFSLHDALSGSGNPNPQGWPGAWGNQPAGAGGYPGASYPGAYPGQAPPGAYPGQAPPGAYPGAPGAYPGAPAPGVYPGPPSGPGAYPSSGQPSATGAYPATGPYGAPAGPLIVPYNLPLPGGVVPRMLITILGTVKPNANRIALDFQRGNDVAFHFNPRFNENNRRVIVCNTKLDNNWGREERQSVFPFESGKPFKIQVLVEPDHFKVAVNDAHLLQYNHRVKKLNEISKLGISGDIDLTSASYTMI
Sequence of Galectin-1 (P09382 whole entry): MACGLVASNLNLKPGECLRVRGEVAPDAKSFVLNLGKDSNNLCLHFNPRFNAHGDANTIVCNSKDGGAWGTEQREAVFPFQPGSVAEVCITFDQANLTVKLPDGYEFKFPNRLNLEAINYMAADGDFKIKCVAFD
Sequence of Galectin-9 (O00182 whole entry): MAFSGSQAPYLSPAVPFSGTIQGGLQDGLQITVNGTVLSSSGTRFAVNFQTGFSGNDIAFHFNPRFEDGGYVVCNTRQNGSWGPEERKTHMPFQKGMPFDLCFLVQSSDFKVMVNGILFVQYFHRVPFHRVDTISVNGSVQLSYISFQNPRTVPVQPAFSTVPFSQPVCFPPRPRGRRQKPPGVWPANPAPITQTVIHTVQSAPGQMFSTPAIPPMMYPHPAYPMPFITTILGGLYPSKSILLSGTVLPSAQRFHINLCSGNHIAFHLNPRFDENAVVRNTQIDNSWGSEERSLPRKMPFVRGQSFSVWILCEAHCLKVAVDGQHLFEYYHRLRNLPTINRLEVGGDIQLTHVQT

One may read the Cmax as the peak of the concentration-time curve. By Tmax is commonly meant the time from dosing to the highest level. In general, AUC(0-t) refers to exposure summed from dosing to a finite time, without extrapolation to infinity. A high value points to high exposure. `OC[C@H]1O[C@@H](c2ncnn2-c2ccc(Cl)c(Cl)c2)[C@H](O)[C@@H](n2cc(-c3cc(F)c(F)c(F)c3)nn2)[C@H]1O`: the peak level in data set [1] (Cmax) was 410 nM. For the same compound, the Tmax in [2] turned out to be 3 h. The same compound displayed an AUC(0-t) at 24 h in data set [3] of 1.8 µM·h.

One may read the IC50 as the concentration needed to halve the response being measured. As to `Cn1nc([C@@H]2O[C@H](CO)[C@H](O)[C@H](n3cc(-c4ccc(Br)c(F)c4F)nn3)[C@H]2O)n(-c2cc(Cl)ccc2C(F)(F)F)c1=S` (stereo in doubt; 21), on Galectin-3 [4], the IC50 was 3800 nM. For the same compound, the permeability in [5] (pampa, pH 5.5, 4 h, 4 h) turned out to be 22 ×10⁻⁶ cm/s; in data set [6] (4 h), 28 ×10⁻⁶ cm/s.

Consider `OC[C@H]1O[C@@H](c2nncn2-c2cc(Cl)ccc2OC(F)(F)F)[C@H](O)[C@@H](n2cc(-c3ccc(Cl)c(F)c3F)nn2)[C@H]1O`, for which the results for the IC50 on Galectin-3 [7] and at Galectin-3 [4] were 13 nM and 100 nM, respectively. Moreover, in data set [6], the Papp at 4 h worked out at 27 ×10⁻⁶ cm/s.

`OC[C@H]1O[C@@H](c2nncn2-c2cc(Cl)ccc2C(F)(F)F)[C@H](OCC(F)(F)C(F)F)[C@@H](n2cc(-c3ccc(Br)c(F)c3F)nn2)[C@H]1O`: at Galectin-3 [4], the IC50 was 110 nM. For the same compound, the Papp at 4 h was 68 ×10⁻⁶ cm/s in data set [5] and 88 ×10⁻⁶ cm/s in data set [6].

For `OC[C@H]1O[C@@H](c2nncn2-c2cc(Cl)ccc2C(F)(F)F)[C@H](O)[C@@H](n2cc(-c3ccc(Cl)c(F)c3)nn2)[C@H]1O`, the IC50 at Galectin-3 [4] amounted to 100 nM. Also, the Papp at 4 h amounted to 1.8 ×10⁻⁶ cm/s in data set [5] and 2.1 ×10⁻⁶ cm/s in [6].

`OC[C@H]1O[C@@H](c2nncn2-c2cc(Cl)ccc2C(F)(F)F)[C@H](O)[C@@H](n2cc(-c3ccc(Br)c(F)c3F)nn2)[C@H]1O`: the IC50 on Galectin-3 [4] turned out to be 69 nM. Further, the Papp at 4 h in [5] and in data set [6] was 7 ×10⁻⁶ cm/s each time.

Turning to `OC[C@H]1O[C@@H](c2n[nH]c(=S)n2-c2cc(Cl)ccc2C(F)(F)F)[C@H](O)[C@@H](n2cc(-c3ccc(Br)c(F)c3F)nn2)[C@H]1O` (stereo in doubt; 19), the IC50 is 76 nM on Galectin-3 [7] and 1000 nM on Galectin-3 [4]. For the same compound, the permeability in [6] (4 h) is 0.2 ×10⁻⁶ cm/s.

As for `Cc1nnc([C@@H]2O[C@H](CO)[C@H](O)[C@H](n3cc(-c4cc(F)c(Cl)c(F)c4)nn3)[C@H]2O)n1-c1cc(Cl)ccc1C(F)(F)F` (stereo in doubt; 5), the IC50 at Galectin-3 [7] was 1300 nM; on Galectin-3 [4] it was 7000 nM. In addition, the permeability in data set [6] (4 h) was 1.6 ×10⁻⁶ cm/s.

As to `CO[C@@H]1[C@@H](n2cc(-c3cc(F)c(Cl)c(F)c3)nn2)[C@@H](O)[C@@H](CO)O[C@H]1c1nncn1-c1cc(Cl)ccc1C(F)(F)F`, the concentration for half-maximal inhibition (IC50) at Galectin-3 [4] is 160 nM; against Galectin-1, 7000 nM; at Galectin-9, 7000 nM.

As to `OC[C@H]1O[C@@H](c2n[nH]c(=S)n2-c2cc(Cl)ccc2C(F)(F)F)[C@H](O)[C@@H](n2cc(-c3ccc(Br)c(F)c3F)nn2)[C@H]1O` (stereo in doubt; 18), the IC50 at Galectin-3 [7] turned out to be 6.9 nM; on Galectin-3 [4] it was 25 nM. Also, in data set [6], the Papp at 4 h came out at 0.1 ×10⁻⁶ cm/s.

In data set [1], `OC[C@H]1O[C@H](Sc2ccc(Cl)c(Cl)c2)[C@H](O)[C@@H](n2cc(-c3cc(F)c(F)c(F)c3)nn2)[C@H]1O` registered a Cmax of 6300 nM. The Tmax in data set [2] worked out at 7 h. Further, the AUC(0-t) at 24 h in data set [3] was found to be 84 µM·h.

Regarding `OC[C@H]1O[C@@H](c2nncn2-c2cc(Cl)ccc2Cl)[C@H](O)[C@@H](n2cc(-c3cc(F)c(Cl)c(F)c3)nn2)[C@H]1O`, the concentration for half-maximal inhibition (IC50) on Galectin-3 [4] was 350 nM. The results for the Papp at 4 h in data set [5] and in [6] were 3.6 ×10⁻⁶ cm/s and 1.7 ×10⁻⁶ cm/s, respectively.

Regarding `CO[C@@H]1[C@@H](n2cc(-c3ccc(Br)c(F)c3)nn2)[C@@H](O)[C@@H](CO)O[C@H]1c1nncn1-c1cc(Cl)ccc1C(F)(F)F`, the IC50 at Galectin-3 [7] turned out to be 22 nM; on Galectin-3 [4] it was 71 nM. Moreover, the Papp at 4 h in [5] is 20 ×10⁻⁶ cm/s; in data set [6], 22 ×10⁻⁶ cm/s.

Consider `Cc1nc([C@@H]2O[C@H](CO)[C@H](O)[C@H](n3cc(-c4cc(F)c(Cl)c(F)c4)nn3)[C@H]2O)n(-c2cc(Cl)ccc2C(F)(F)F)n1`, for which the Tmax in data set [2] came out at 3 h.

For the compound `OC[C@H]1O[C@@H](c2n[nH]c(=S)n2-c2cc(Cl)ccc2OC(F)(F)F)[C@H](O)[C@@H](n2cc(-c3ccc(Cl)c(F)c3F)nn2)[C@H]1O` (stereo in doubt; 16), the IC50 at Galectin-3 [7] came to 7 nM; on Galectin-3 [4], 50 nM. Moreover, the values for the Papp at 4 h in data set [5] and in data set [6] were 1.1 ×10⁻⁶ cm/s and 0.2 ×10⁻⁶ cm/s, respectively. Moreover, in data set [8], the Papp A→B at 2 h was less than 1.5 ×10⁻⁶ cm/s. In addition, the Papp B→A at 2 h in [9] worked out at 3.2 ×10⁻⁶ cm/s. Moreover, the figures for the recovery at 2 h in data set [10] and in [11] were 67% and 81%, respectively.

Turning to `OC[C@H]1O[C@@H](c2n[nH]c(=S)n2-c2cc(Cl)ccc2OC(F)(F)F)[C@H](O)[C@@H](n2cc(-c3ccc(Cl)c(F)c3F)nn2)[C@H]1O` (stereo in doubt; 17), the IC50 at Galectin-3 [7] amounted to 70 nM; on Galectin-3 [4], 720 nM. In data set [6], this compound registered a permeability of 0.2 ×10⁻⁶ cm/s.

`Cn1nc([C@@H]2O[C@H](CO)[C@H](O)[C@H](n3cc(-c4ccc(Br)c(F)c4F)nn3)[C@H]2O)n(-c2cc(Cl)ccc2C(F)(F)F)c1=S` (stereo in doubt; 20) returned a Cmax in data set [1] of 1900 nM. The Tmax in data set [2] worked out at 3 h. For the same compound, in [3], the AUC(0-t) at 24 h was 12 µM·h. The IC50 on Galectin-3 [4] was 40 nM; against Galectin-1, 2400 nM; against Galectin-9 it was 7200 nM. Further, the Papp at 4 h in data set [5] amounted to 12 ×10⁻⁶ cm/s. The compound further displayed a permeability in data set [6] (4 h) of 8.6 ×10⁻⁶ cm/s. For the same compound, the Papp A→B at 2 h in data set [8] was less than 1.5 ×10⁻⁶ cm/s. For the same compound, in data set [9], the Papp B→A at 2 h is 15 ×10⁻⁶ cm/s. For the same compound, the recovery at 2 h in [10] amounted to 59%; in [11] it was 80%.

Take `CO[C@@H]1[C@@H](n2cc(-c3ccc(Br)c(F)c3F)nn2)[C@@H](O)[C@@H](CO)O[C@H]1c1nncn1-c1cc(Cl)ccc1C(F)(F)F`: the values for the IC50 on Galectin-3 [7] and at Galectin-3 [4] were 9 nM and 52 nM, respectively. Further, the Papp at 4 h was 33 ×10⁻⁶ cm/s in data set [5] and 28 ×10⁻⁶ cm/s in data set [6].

In turn, `CO[C@@H]1[C@@H](n2cc(-c3ccc(Cl)c(F)c3F)nn2)[C@@H](O)[C@@H](CO)O[C@H]1c1nncn1-c1cc(Cl)ccc1OC(F)(F)F` yielded a Cmax in [1] of 3000 nM. Further, in [2], the Tmax came to 3 h. The compound further displayed an AUC(0-t) at 24 h in data set [3] of 16 µM·h. The IC50 was determined as 100 nM on Galectin-3 [4], 2000 nM against Galectin-1 and 2400 nM against Galectin-9. In addition, the Papp at 4 h in data set [5] was 54 ×10⁻⁶ cm/s; in [6] it was 49 ×10⁻⁶ cm/s.

In the case of `Cc1nnc([C@@H]2O[C@H](CO)[C@H](O)[C@H](n3cc(-c4cc(F)c(Cl)c(F)c4)nn3)[C@H]2O)n1-c1cc(Cl)ccc1C(F)(F)F` (stereo in doubt; 4), the IC50 is 67 nM at Galectin-3 [4], 2500 nM on Galectin-1 and 4000 nM against Galectin-9. The same compound showed a permeability in data set [6] (4 h) of 4.4 ×10⁻⁶ cm/s.

As for `OC[C@H]1O[C@@H](c2nncn2-c2cc(Cl)ccc2OC(F)(F)F)[C@H](O)[C@@H](n2cc(-c3ccc(Br)c(F)c3F)nn2)[C@H]1O`, the IC50 at Galectin-3 [4] came out at 62 nM. Also, the figures for the Papp at 4 h in data set [5] and in [6] were 21 ×10⁻⁶ cm/s and 18 ×10⁻⁶ cm/s, respectively.
